The values below come from patent publication US10702526B2, “Inhibitors of immune checkpoint modulators and related methods” (eFFECTOR Therapeutics, Inc., priority 2015, dated 2020).

The subject of data set [1] is PD-1 expression on Jurkat cells. As to the kind of experiment: PD-1 expression on PHA/PMA-activated Jurkat T cells (flow cytometry). The conditions noted are these: Jurkat T cell assay, MNK-specific inhibitors. In kind it is cell-based, human. As to the method:
(§1) To examine the effect of MNK-specific inhibitors on PD-1 expression, Jurkat cells (Clone E6.1, ATCC, transformed T cells) were used, which express PD-1 when activated through T cell receptor (TCR) signaling. Briefly, Jurkat cells were grown in 1×RPMI with 1× Pen/Strep, and 10% FBS, then about 3×10^6 Jurkat cells were activated in presence of 1 μg/mL PHA (Sigma) and 50 ng/mL PMA (Sigma). Test Cells were treated simultaneously with various concentrations of MNK-specific inhibitor Compound 107 (0, 0.01, 0.1, 1, 3 and 10 μM). After 48 hours, culture supernatants were harvested and examined via sandwich ELISA for the presence of IL-2 using human IL-2 ELISA DuoSet® (R&D Systems, Minneapolis, Minn.). The level of PD-1 on Jurkat cells was examined by incubating cells with fixable dead cell stain (1:20,000; BD Biosciences, San Jose, Calif.) for 15 minutes at 4° C., washed twice with flow staining buffer (1×PBS, 4% FBS and 1 mM EDTA), incubated with human FcR block, then contacted with allophycocyanin (APC) conjugated anti-PD-1 antibody (Biolegend, San Diego, Calif.) for 30 minutes at 4° C., washed two times with flow buffer, and finally cells were fixed with fixation buffer for 20 minutes at 4° C. After fixation, cells were washed twice with flow buffer and re-suspended in flow buffer and assessed for fluorescence using BD Accuri C6 flow cytometer. Data were analyzed using the C6 cytometer software (BD Biosciences, San Jose, Calif.).
Background: A flow cytometer gives signals particle by particle.

A further data set relates to Jurkat cells. As to the kind of experiment: Jurkat T cell viability (fixable dead cell stain). In kind it is cell-based. The conditions noted are these: Jurkat T cell assay, MNK-specific inhibitors. As to the method:
as §1

Data set [2] has as its system IL-10 production in primary T cells. As to the kind of experiment: IL-10 production by activated primary T cells. In kind it is cell-based, human.

As for `Cc1cc(Nc2ncnc(N)c2Cl)c(=O)n2c1C(=O)N[C@]21CCCNC1` [Compound 969], the “% PD-1 + Inhibition” value in data set [1] is listed as “+++ (+++ = 50-75%)”. Further, the “Cell Death” value in the data set on Jurkat cells is reported as “− (− = 0-10%)”.

Regarding `Cc1cc(Nc2ncnc(N)c2C)c(=O)n2c1C(=O)NC21CCN(CC(F)F)CC1(C)C` (stereo not shown) [Compound 1092], the “% PD-1 + Inhibition” value in data set [1] is “++ (++ = 25-50%)”. The “Cell Death” value in the data set with Jurkat cells was “− (− = 0-10%)”.

With `Cc1cc(Nc2ncnc(N)c2Cl)cc2c1C(=O)NC21CCCCC1` [Compound 462], the “% PD-1 + Inhibition” value in data set [1] is “++++ (++++ = 75-100%)”. In the data set on Jurkat cells, the “Cell Death” value is given as “+ (+ = 10-25%)”.

Consider `Cc1cc(Nc2ncnc(N)c2Cl)c(=O)n2c1C(=O)NC21CCN(CCC(F)(F)F)CC1` [Compound 775], for which the “% PD-1 + Inhibition” value in data set [1] is listed as “− (− = 0-10%)”. Further, in the data set on Jurkat cells, the “Cell Death” value is given as “− (− = 0-10%)”.

Regarding `Cc1cc(Nc2ncnc(N)c2C)cc2c1C(=O)NC21CCCCC1` [Compound 440], the “% PD-1 + Inhibition” value in data set [1] is reported as “++++ (++++ = 75-100%)”. For the same compound, the “Cell Death” value with Jurkat cells is reported as “− (− = 0-10%)”.

With `Cc1cc(Nc2ncnc(N)c2C)c(=O)n2c1C(=O)NC21CCOCC1` [Compound 626], in data set [1], the “% PD-1 + Inhibition” value is on record as “++ (++ = 25-50%)”. Also, in the data set with Jurkat cells, the “Cell Death” value was “− (− = 0-10%)”.

Consider `Cc1cc(Nc2ncnc3[nH]ccc23)cc2c1C(=O)NC21CCCCC1` [Compound 637], for which, in data set [1], the “% PD-1 + Inhibition” value is given as “++++ (++++ = 75-100%)”. The “Cell Death” value with Jurkat cells was “++ (++ = 25-50%)”.

For `Cc1cc(Nc2ncnc(N)c2Cl)c(=O)n2c1C(=O)N[C@@]21CCCNC1` [Compound 970], in data set [1], the “% PD-1 + Inhibition” value was “+++ (+++ = 50-75%)”. For the same compound, in the data set with Jurkat cells, the “Cell Death” value is reported as “− (− = 0-10%)”.

For the compound `Cc1cc(Nc2ncnc(N)c2Cl)c(=O)n2c1C(=O)NC21CCCNC1` (stereo not shown) [Compound 750], the “% PD-1 + Inhibition” value in data set [1] is on record as “+++ (+++ = 50-75%)”. For the same compound, the “Cell Death” value in the data set with Jurkat cells is recorded as “− (− = 0-10%)”. In data set [2], the “% IL-10 Inhibition” value is given as “++++ (++++ = 75-100%)”.

Take `Cc1cc(Nc2ncnc(N)c2Cl)c(=O)n2c1C(=O)NC21CCN(C)CC1(C)C` (stereo not shown) [Compound 1008]: the “% PD-1 + Inhibition” value in data set [1] is “+++ (+++ = 50-75%)”. In addition, the “Cell Death” value in the data set on Jurkat cells is on record as “++ (++ = 25-50%)”.

Regarding `Cc1cc(Nc2ncnc(N)c2C)c(=O)n2c1C(=O)NC21CNCCC1(C)C` (stereo not shown) [Compound 1091], in data set [1], the “% PD-1 + Inhibition” value was “++ (++ = 25-50%)”. Also, the “Cell Death” value in the data set on Jurkat cells is recorded as “− (− = 0-10%)”.

For the compound `Cc1cc(Nc2ncnc(N)c2Cl)c(=O)n2c1C(=O)NC21CCCCC1` [Compound 474], the “% PD-1 + Inhibition” value in data set [1] is “+++ (+++ = 50-75%)”. Also, the “Cell Death” value with Jurkat cells is reported as “− (− = 0-10%)”. Further, in data set [2], the “% IL-10 Inhibition” value is reported as “++++ (++++ = 75-100%)”.

Turning to `Cc1cc(Nc2ncnc(N)c2Cl)c(=O)n2c1C(=O)NC21CCN(C2CC2)CC1` [Compound 752], in data set [1], the “% PD-1 + Inhibition” value was “− (− = 0-10%)”. In addition, in the data set on Jurkat cells, the “Cell Death” value is listed as “− (− = 0-10%)”.

Take `Cc1cc(Nc2ncnc(N)c2C)nc2c1C(=O)NC21CCCCC1` [Compound 622]: the “% PD-1 + Inhibition” value in data set [1] is “++++ (++++ = 75-100%)”. Also, the “Cell Death” value with Jurkat cells is “− (− = 0-10%)”.

For `Cc1cc(Nc2ncnc(N)c2OCCN)c(=O)n2c1C(=O)NC21CCCCC1` [Compound 827], the “% PD-1 + Inhibition” value in data set [1] was “++ (++ = 25-50%)”. The “Cell Death” value with Jurkat cells was “− (− = 0-10%)”.

`Cc1cc(Nc2ncnc(N)c2C)c(=O)n2c1C(=O)NC21CCN(CCC(F)(F)F)CC1` [Compound 753]: the “% PD-1 + Inhibition” value in data set [1] was “− (− = 0-10%)”. Besides, the “Cell Death” value in the data set on Jurkat cells is “− (− = 0-10%)”.

As to `Cc1cc(-n2ccc3c(N)ncnc32)nc2c1C(=O)NC21CCCCC1` [Compound 652], the “% PD-1 + Inhibition” value in data set [1] was “++++ (++++ = 75-100%)”. The “Cell Death” value in the data set on Jurkat cells is “− (− = 0-10%)”.

Turning to `CCCN1CCC2(CC1)NC(=O)c1c(C)cc(Nc3ncnc(N)c3Cl)c(=O)n12` [Compound 776], the “% PD-1 + Inhibition” value in data set [1] is listed as “+ (+ = 10-25%)”. In addition, in the data set with Jurkat cells, the “Cell Death” value was “− (− = 0-10%)”.

As to `Cc1cc(Nc2cc(N)ncn2)c(=O)n2c1C(=O)NC21CCCC1.Cl` [Compound 98], the “% PD-1 + Inhibition” value in data set [1] is reported as “+++ (+++ = 50-75%)”. The “Cell Death” value in the data set with Jurkat cells is listed as “− (− = 0-10%)”.

Turning to `Cc1cc(Nc2ncnc(N)c2Cl)c(=O)n2c1C(=O)NC21CCN(C)C(C)(C)C1` (stereo not shown) [Compound 1053], the “% PD-1 + Inhibition” value in data set [1] is on record as “+ (+ = 10-25%)”. Further, the “Cell Death” value in the data set on Jurkat cells is given as “− (− = 0-10%)”.

`Cc1cc(Nc2ncnc(N)c2Cl)c(=O)n2c1C(=O)NC21CCN(CC(F)F)CC1` [Compound 611]: the “% PD-1 + Inhibition” value in data set [1] is “++ (++ = 25-50%)”. In the data set with Jurkat cells, the “Cell Death” value is recorded as “− (− = 0-10%)”.

`Cc1cc(Nc2ncnc(N)c2Cl)c(=O)n2c1C(=O)NC21CNCCC1(C)C` (stereo not shown) [Compound 1090]: the “% PD-1 + Inhibition” value in data set [1] is recorded as “+++ (+++ = 50-75%)”. Further, the “Cell Death” value with Jurkat cells is on record as “+ (+ = 10-25%)”.

On to `Cc1cc(Nc2ncnc(N)c2Cl)c(=O)n2c1C(=O)NC21CC(C)N(C)C(C)C1` (stereo not shown) [Compound 1031], for which the “% PD-1 + Inhibition” value in data set [1] is on record as “+++ (+++ = 50-75%)”. For the same compound, the “Cell Death” value with Jurkat cells was “+++ (+++ = 50-75%)”.

Consider `Cc1cc(Nc2ncnc(N)c2C)c(=O)n2c1C(=O)NC21CCCN(C)C1` (stereo not shown) [Compound 917], for which the “% PD-1 + Inhibition” value in data set [1] is “++ (++ = 25-50%)”. In the data set on Jurkat cells, the “Cell Death” value is recorded as “+ (+ = 10-25%)”.

As to `Cc1cc(Nc2ncnc(N)c2Cl)nc2c1C(=O)NC21CCCCC1` [Compound 624], the “% PD-1 + Inhibition” value in data set [1] is listed as “++++ (++++ = 75-100%)”. The “Cell Death” value with Jurkat cells was “+ (+ = 10-25%)”.

As to `Cc1cc(Nc2ncnc(N)c2C)c(=O)n2c1C(=O)NC21CCN(CC(F)F)CC1` [Compound 590], the “% PD-1 + Inhibition” value in data set [1] is “++ (++ = 25-50%)”. In addition, in the data set with Jurkat cells, the “Cell Death” value is “− (− = 0-10%)”. The “% IL-10 Inhibition” value in data set [2] was “++++ (++++ = 75-100%)”.
